Settings: for log10 BCF / log10 biotransformation half-life (days): fish

SMILES	boiling point [°C]	melting point [°C]	other results
CC=C(C)Br	99.8	–	–
N#CCCOc1cccc2ccccc12	–	64	–
CCCCCCC(C)CC (centres undefined)	168	-84.8	–
c1ccc2c(c1)[nH]c1ccccc12	355	246	log10 Henry constant (atm·m³/mol): -6.94; log10 Koc (L/kg): 3.4; log10 vapour pressure (mmHg): -6.12; ready biodegradability: not readily biodegradable; log10 BCF: 2.23; log10 biotransformation half-life (days): 0.06
O=C1NC(=O)c2c1cccc2[N+](=O)[O-]	–	214	–
CCn1ccc(NS(=O)(=O)c2ccc(N)cc2)nc1=O	–	166	–
C[C@H]1C=CC2C(C1)C2(C)C (stereo in doubt)	169	–	–
Nc1nc(N)c2[nH]cnc2n1	–	302	–
NC1CCC1	82	–	–
Clc1cc2c(Cl)cccc2c(Cl)c1Cl	–	141	log10 Koa: 8.29; log10 vapour pressure (mmHg): -4.96
CCCC[Si](C)(C)Cl	139	–	–
CNC(=O)Oc1cccc2c1OC(C)(C)C2	–	151	log10 Koc (L/kg): 1.75; log10 vapour pressure (mmHg): -5.31
COC(=O)C(C)(C)C	101	–	log10 Henry constant (atm·m³/mol): -3.37
NC(=O)c1ccc(O)cc1	–	162	–
CCC(C)C	–	-160	log10 vapour pressure (mmHg): 2.84
C1CC2CCC1C2	105	87.5	–
CC(Br)C(C)(C)Br (centres undefined)	–	7	–
FC(F)(F)c1ccccc1	102	-29.1	log10 vapour pressure (mmHg): 1.59; ready biodegradability: not readily biodegradable; log10 BCF: 1.65; log10 biotransformation half-life (days): -0.48
CC(=O)C1C(=O)C=C(C)OC1=O (centres undefined)	270	109	log10 vapour pressure (mmHg): -2.9; ready biodegradability: readily biodegradable
CC(=O)c1ccc[nH]1	220	90	–
CCC1CCC(=O)CC1	193	–	–
Cc1ccc(-c2cccc(C)c2)cc1	289	14.5	–
CC(=O)Nc1ccc2c(c1)Cc1cc([N+](=O)[O-])ccc1-2	–	262	–
Cc1ccc(Cl)c(OCC(O)CNC(C)(C)C)c1 (centres undefined)	–	221	–
CC1CCCC2(C)CCCCC12O (centres undefined)	270	–	–

SMILES	boiling point [°C]	melting point [°C]	other results
Nc1c(F)c(F)cc(F)c1F	158	31.5	–
N=C(N)c1ccc(C=Cc2ccc(C(=N)N)cc2O)cc1	–	235	–
Cc1cc(CC(=O)O)n(C)c1C(=O)c1ccc(Cl)cc1	–	178	–
COc1ccc(CCc2cc(OC)c3ccccc3n2)cc1OC	–	116	–
O=C1C=CC(=O)N1c1ccccc1	–	90.5	–
Cc1ccc2ncccc2c1	259	-22	log10 vapour pressure (mmHg): -2.19
Nc1c(Cl)c(F)nc(OCC(=O)O)c1Cl	–	232	log10 vapour pressure (mmHg): -10.5
CCOP(=S)(OCC)SCn1nnc2ccccc2c1=O	–	53	–
O=C1C(=O)c2cccc3cccc1c23	–	261	–
O=C(O)C1=CCCc2ccccc21	306	125	–
O=C(O)[C@H]1CC[C@H](C(=O)O)CC1	–	312	–
FC1(F)C(F)(F)C(F)(F)C(F)(F)C(F)(F)C1(F)F	50.6	–	log10 vapour pressure (mmHg): 2.23
C=CCOC(=O)C(=C)C	–	–	log10 vapour pressure (mmHg): 0.761; ready biodegradability: readily biodegradable
CCC(COC(=O)c1cc(OC)c(OC)c(OC)c1)(c1ccccc1)N(C)C (centres undefined)	–	79	–
Oc1ccccc1C1CCCC1	–	34.5	–
Clc1cc2c(Cl)c(Cl)c(Cl)c(Cl)c2c(Cl)c1Cl	–	–	log10 vapour pressure (mmHg): -7.07
CCNc1cccc(O)c1	–	62	–
NNc1ccccc1	244	19.6	log10 vapour pressure (mmHg): -1.58
Cc1ccc2cc(N(C)C)ccc2n1	319	101	–
CCOCCC(OCC)OCC	185	53	–
ON=C(C1CC1)C1CC1	–	76.5	–
N[C@H](CCC(=O)O)C(=O)O	–	201	–
O=C(O)C1CCCCN1 (centres undefined)	–	264	–
Cc1ccc2[nH]c(C)c(C)c2c1	297	122	–
CCCCCCCC(=O)OCC	208	-43.1	log10 Koc (L/kg): 3.02

SMILES	boiling point [°C]	melting point [°C]	other results
CC1(C(=O)O)CCCCC1	234	37.5	–
CCN1CCN(c2cc3c(cc2F)c(=O)c(C(=O)O)cn3C2CC2)CC1	–	220	–
CC(C)=CC1C(C(=O)OCc2coc(Cc3ccccc3)c2)C1(C)C (centres undefined)	–	44.2	log10 Koc (L/kg): 5
FC(Cl)(Cl)CCl	88	-140	–
C=CCCCCCC=C	142	–	–
O=[N+]([O-])c1c(O)cccc1O	–	82	ready biodegradability: readily biodegradable
Cc1cc(=O)[nH]c(=S)[nH]1	–	–	log10 Koc (L/kg): 2.14
CCC=C(C)C	67.3	-135	log10 vapour pressure (mmHg): 2.2
C[C@@H](N)[C@@H](O)c1ccccc1	–	101	–
Cc1ccc(C(=O)O)cc1	–	180	log10 Koc (L/kg): 1.77; log10 vapour pressure (mmHg): -4.29; ready biodegradability: readily biodegradable
Oc1cccc2cccnc12	267	75.5	log10 vapour pressure (mmHg): -2.78; ready biodegradability: not readily biodegradable
Cc1ccc(S(=O)(=O)Nc2ccccc2C)cc1	–	110	–
CCCc1ccc(C(=O)O)cc1	–	143	–
O=C(Nc1ccccc1)C(Cl)(Cl)Cl	–	96	–
CC1(C)CC[C@]2(C)CC=C3[C@]4(C)CC[C@H]5C(C)(C)[C@@H](O)CC[C@]5(C)[C@H]4CC[C@@]3(C)[C@@H]2C1	–	284	–
ClC=C(Cl)CCl	142	–	log10 vapour pressure (mmHg): 0.643
NC(=O)c1ncccc1O	–	195	–
C[Se]C	55	–	log10 Henry constant (atm·m³/mol): -2.76; log10 vapour pressure (mmHg): 2.38
Cc1ccc(O)c(C=O)c1	218	56	–
CCCCNC(=O)c1ccc2cc(O)c(O)cc2c1	–	194	–
CC1CCCCC1(C)C (centres undefined)	145	-29	–
CC(C)(C)NC(=O)[C@H]1CC[C@H]2[C@@H]3CC[C@H]4NC(=O)C=C[C@]4(C)[C@H]3CC[C@]12C	–	253	–
NCCOCCO	221	–	log10 vapour pressure (mmHg): -2.81
c1ccc(-c2c3ccccc3c(-c3ccccc3)c3ccccc23)cc1	–	246	log10 vapour pressure (mmHg): -9.84
CF	-78.4	-142	log10 vapour pressure (mmHg): 3.46

SMILES	boiling point [°C]	melting point [°C]	other results
Cc1ccc(OP(=O)(Oc2ccc(C)cc2)Oc2ccc(C)cc2)cc1	–	77.5	–
CCCCC1CO1 (centres undefined)	–	94	–
CCOP(=S)(Oc1ccc(Cl)cc1Cl)c1ccccc1 (centres undefined)	–	–	ready biodegradability: not readily biodegradable
CCOc1c(N2CCOCC2)cnn(C)c1=O	–	90	–
CCOc1ccc([Si](C)(C)CCCc2ccc(F)c(Oc3ccccc3)c2)cc1	–	–	log10 vapour pressure (mmHg): -7.73
Nc1ccc([N+](=O)[O-])c2c1C(=O)c1c(Cl)ccc(Cl)c1C2=O	–	307	log10 vapour pressure (mmHg): -12.4
CC[C@H](C)CBr	122	–	–
CCCCCCCCCCCCCOP(Oc1ccccc1)Oc1ccccc1	–	–	ready biodegradability: not readily biodegradable
O=C(c1ccccc1)c1ccc(Br)cc1	350	82.5	–
C[C@]12CCC(=O)C=C1C=C[C@@H]1[C@@H]2CC[C@@]2(C)[C@H]1CC[C@@]21CCC(=O)O1	–	150	–
CC(C)CCCC(C)(C)O	173	–	–
COC(=O)c1ccc(Cl)cc1[N+](=O)[O-]	–	44	–
CNc1ccccn1	200	15	–
Cc1cc(O)ccc1Cl	235	67	log10 vapour pressure (mmHg): -1.3; ready biodegradability: readily biodegradable; log10 BCF: 0.93; log10 biotransformation half-life (days): -1.28
CCCCCCN1CCCC1=O	–	4	–
Cc1cc(C)c(O)c(C(C)(C)C)c1	249	22.3	log10 vapour pressure (mmHg): -1.35; ready biodegradability: not readily biodegradable
O=[N+]([O-])c1cc(I)c(O)c(I)c1	–	157	–
Cc1ccc(O)cc1Cl	228	55.5	ready biodegradability: not readily biodegradable
CON(C(=O)c1cc(C)oc1C)C1CCCCC1	–	33	–
CC12CC3CC(C)(C1)CC(N)(C3)C2	–	258	–
CC1=CCC2CC1C2(C)C (racemic)	156	-60.5	–
O=P(O)(O)CCP(=O)(O)O	–	218	–
CC(F)(F)C(Cl)(Cl)Cl	73	–	–
C[Si]1(C)N[Si](C)(C)N[Si](C)(C)N1	188	-10	–
C/C=C(\C)C(=O)O[C@H]1C[C@@H](OC(C)=O)[C@@]2(C(=O)OC)CO[C@H]3[C@@H](O)[C@@](C)([C@]45O[C@@]4(C)[C@H]4C[C@@H]5O[C@@H]5OC=C[C@@]54O)[C@H]4[C@]1(CO[C@]4(O)C(=O)OC)[C@@H]32	–	156	–

SMILES	boiling point [°C]	melting point [°C]	other results
C=CCOC(=O)OCCOCCOC(=O)OCC=C	–	-4	ready biodegradability: readily biodegradable
Cc1cccc(C)c1Br	204	–	–
COCC(COC)OC	148	–	–
CCOC(=O)C(C)O (centres undefined)	154	–	log10 vapour pressure (mmHg): 0.574
O=C(O)c1c(F)ccc(F)c1F	–	130	–
c1ccc2n[nH]nc2c1	–	–	ready biodegradability: not readily biodegradable
C=CCc1ccc(OC)cc1	216	–	–
CCC(C)C(C)(C)C(C)C (centres undefined)	165	–	–
CC1=CCCC(=O)C1	201	-21	–
CC(Oc1ccc2ccccc2c1)C(O)=Nc1ccccc1 (centres undefined)	–	128	log10 vapour pressure (mmHg): -10.7
CCCCCCCCCCCC(=O)OC(C)C	–	–	log10 vapour pressure (mmHg): -2.57
CC(C)F	-10	–	–
COc1ccccc1C#N	256	24.5	–
FC(F)(Cl)C(F)(F)C(F)(F)C(F)(F)C(F)(F)C(F)(F)C(F)(F)C(F)(F)Cl	151	–	–
C1CCSC1	121	-96.1	log10 vapour pressure (mmHg): 1.26
O=C(O)Cc1c[nH]c2ccccc12	–	168	–
Cc1cccc(CN)c1	204	–	–
COc1cc(OC)nc(Sc2cccc(Cl)c2C(=O)O)n1	–	150	–
NC(N)=S	–	182	log10 Koc (L/kg): 0.85; log10 vapour pressure (mmHg): -2.55; log10 BCF: 0.3
CC(O)C(C)Cl (centres undefined)	139	–	–
O=[N+]([O-])c1ccc2c3c(cccc13)CC2	–	100	–
C=CC1(C(C)CCC)C(=O)NC(=O)NC1=O (centres undefined)	–	91	–
CC(=O)[C@H]1CC[C@H]2[C@@H]3C=CC4=CC(=O)CC[C@@]4(C)[C@@H]3CC[C@]12C	–	170	–
O=CC=O	50.4	15	log10 Henry constant (atm·m³/mol): -8.48; log10 vapour pressure (mmHg): 2.41; ready biodegradability: readily biodegradable
CCN(CC)CCN	144	–	–

Reference: the OPERA property sets (Mansouri et al. 2018)
